Here are results for 5 compounds from patent US20130123281A1, “Compositions and Methods for Inhibition of TBL-1 Binding to Disease-Associated Molecules” (BETA CAT PHARMACEUTICALS, LLC, priority 2011, published 2013).

Assay [1] addresses T1, interaction of β-catenin with TBL1 (Homo sapiens, UniProt O60907).
T1 construct: endogenous in cells; host or cells: HCT15 (A2 also names HCT116)
T1 sequence (O60907 1-577): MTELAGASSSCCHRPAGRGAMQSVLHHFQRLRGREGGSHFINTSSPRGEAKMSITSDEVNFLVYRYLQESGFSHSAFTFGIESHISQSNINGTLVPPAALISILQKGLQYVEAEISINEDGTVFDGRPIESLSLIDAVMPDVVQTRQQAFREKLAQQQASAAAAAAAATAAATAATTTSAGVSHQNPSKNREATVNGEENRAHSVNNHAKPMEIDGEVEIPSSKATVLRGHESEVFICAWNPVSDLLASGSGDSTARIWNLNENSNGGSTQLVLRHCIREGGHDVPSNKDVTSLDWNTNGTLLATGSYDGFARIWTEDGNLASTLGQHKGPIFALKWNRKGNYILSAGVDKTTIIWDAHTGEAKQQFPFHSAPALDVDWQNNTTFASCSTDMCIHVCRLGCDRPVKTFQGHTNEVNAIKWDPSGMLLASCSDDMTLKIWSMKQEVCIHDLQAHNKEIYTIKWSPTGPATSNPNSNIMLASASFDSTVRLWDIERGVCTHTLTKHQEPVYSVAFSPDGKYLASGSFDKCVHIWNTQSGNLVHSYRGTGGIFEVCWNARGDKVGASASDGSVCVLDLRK
Description: Immunoprecipitation with TBL1 antibody and Western blot for β-catenin. It is filed as cell-based. Conditions: HCT15 cells treated for 6 h, Western blot. On the procedure:
FIG. 2 depicts Western blot of an immunoprecipitation using TBL1 antibody. HCT15 cells were incubated with DMSO or indicated concentration of compound for 6 hours. Cell lysates were made and immunoprecipitated with TBL1 antibody. Proteins were separated on an SDS gel, transferred to a membrane and probed with antibodies to β-catenin and to TBL1. Briefly, the HCT15 cell line was seeded at 70% confluence in medium containing 10% FBS and penicillin/streptomycin. After 24 h the cells were treated with Compound 1 for 6 h. Cell lysates were harvested, precleared with protein NG sepharose (Santa Cruz Biotech), and TBL1 was immunoprecipitated using mouse TBL1 antibody (Santa Cruz Biotech) conjugated to protein G sepharose (Santa Cruz Biotech). Immunoprecipitated proteins were resolved on a 10% SDS-PAGE gel followed by transfer of proteins to a nitrocellulose membrane. Western blot analysis was done using antibodies to detect β-catenin protein (BD Transduction Laboratories) and TBL1 protein (Santa Cruz Biotech).
For orientation: Immunoblotting shows a protein as a band on a membrane.

For assay [2], the target named is T2, full length recombinant human TBL1 (Homo sapiens, UniProt O60907).
T2 construct: full length recombinant human TBL1 or full length recombinant human β-catenin; purchased ABNOVA
T2 sequence (O60907 1-577): T1 sequence (O60907 1-577)
Description: Saturation binding assay with biotinylated compound on coated TBL1. Conditions: biotinylated compound 0.1 nM to 10 μM, 2 h at room temperature; read-out: IC50 of binding to TBL1 at the equilibrium. On the procedure: (§1) Additionally, Compound 1 can be modified to contain a functional group, such as biotin, capable of being attached to a solid support and test agents identified that disrupt the binding of immobilized Compound 1 to TBL1 protein. High affinity binding Elisa 96 well plate (Maxisorp, Nunc) was coated with 100 μl to each well of full length recombinant human TBL1 or full length recombinant human β-catenin (ABNOVA) diluted to a final concentration of 1 μg/ml in carbonate/bicarbonate coating buffer, sealed to prevent evaporation, and incubated O/N at 4° C. […] The sealed plate was incubated for 2 h at room temperature, washed 3 times with PBS 0.05% Tween-20, and then the bounded compound was detected by streptavidin-HRP conjugated antibody (Cell Signaling Tech) diluted in blocking buffer. Elisa was developed by addition of ABTS HRP substrate (SIGMA), and the optical density (OD) for each well was read with a microplate reader set to 405 nm. […]
(§2) To determine whether the ability of BC2059 to interfere with TBL1:β-catenin complex formation is due to direct interaction between TBL1 or β-catenin and the compound, we performed saturation binding assays in a in vitro system. […] The sealed plate was incubated for 2 h at RT, washed 3 times with PBS 0.05% Tween-20, and then the bounded compound was detected by streptavidin-HRP conjugated antibody (Cell Signaling Tech) diluted in blocking buffer. […]

Assay [3] concerns the target T3, full length recombinant human β-catenin (Homo sapiens, UniProt P35222).
T3 construct: full length recombinant human β-catenin (ABNOVA); purchased ABNOVA
T3 sequence (P35222 1-781): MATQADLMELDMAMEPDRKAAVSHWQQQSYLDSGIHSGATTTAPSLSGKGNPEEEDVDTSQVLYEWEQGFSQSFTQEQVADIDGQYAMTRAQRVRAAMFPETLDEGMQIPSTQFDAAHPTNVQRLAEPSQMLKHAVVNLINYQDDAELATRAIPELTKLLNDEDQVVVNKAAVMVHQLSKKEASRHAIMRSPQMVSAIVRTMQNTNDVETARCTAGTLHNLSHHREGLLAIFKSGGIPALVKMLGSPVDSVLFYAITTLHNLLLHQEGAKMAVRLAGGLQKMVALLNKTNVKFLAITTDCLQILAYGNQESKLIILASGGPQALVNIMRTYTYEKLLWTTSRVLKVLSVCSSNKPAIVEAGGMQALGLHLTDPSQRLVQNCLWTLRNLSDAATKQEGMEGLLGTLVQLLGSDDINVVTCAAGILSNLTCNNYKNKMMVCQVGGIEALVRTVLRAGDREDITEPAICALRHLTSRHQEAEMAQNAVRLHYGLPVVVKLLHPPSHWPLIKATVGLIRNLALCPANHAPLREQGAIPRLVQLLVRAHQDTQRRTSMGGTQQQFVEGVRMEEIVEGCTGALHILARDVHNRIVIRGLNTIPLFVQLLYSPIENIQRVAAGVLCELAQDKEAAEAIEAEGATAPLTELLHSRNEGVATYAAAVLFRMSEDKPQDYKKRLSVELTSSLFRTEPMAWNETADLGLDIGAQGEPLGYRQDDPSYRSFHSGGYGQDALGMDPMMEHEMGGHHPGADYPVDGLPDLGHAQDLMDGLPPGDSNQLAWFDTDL
Description: Saturation binding assay with biotinylated compound on coated β-catenin. Conditions: biotinylated compound 0.1 nM to 10 μM, 2 h at room temperature. The method, then: as §1, §2

In a further assay the target is T4, TBL1:β-catenin complex (Homo sapiens, UniProt O60907).
T4 construct: endogenous in cells; host or cells: HCT15 (A2 also names HCT116)
T4 sequence (O60907 1-577): T1 sequence (O60907 1-577)
Description: Sandwich ELISA capturing the TBL1:β-catenin complex from treated cell lysates. It is filed as cell-based. On the procedure:
HCT 15 cells are incubated with 20 mM LiCl to induce the Wnt pathway. After 24 h fresh medium with 20 mM LiCl and test agent is added at concentration in the range of 0.3 nM to 3 μM for 6 hours at 37° C. Protein lysates are prepared from cells lysed in RIPA buffer containing protease inhibitors, High affinity binding Sandwich Elisa assays were prepared in 96 well Maxisorp plates (NUNC) by coating with 100 μl in each well of unlabeled capture TBL1 antibody (Santa Cruz Biotech) diluted to a final concentration of 2 ug/ml in carbonate/bicarbonate coating buffer, and incubated 18 hours at 4° C. […] The sealed plate was incubated for 2 h at RT, washed 3 times with PBS 0.05% Tween-20, and then the complex and the recombinant protein was detected by antibody against β-catenin (Cell Signaling Tech) and secondary antibody HRP-conjugated (Sigma). Signal was detected by addition of ABTS HRP substrate
(SIGMA), and read with a microplate reader set to 405 nm.
To determine the amount of β-catenin captured, a standard curve was created using recombinant β-catenin (100 fg to 100 ng, Abnova) added instead of cell lysates in the above procedure. Intensity of signal was compared to values generated using test article treated lysates and approximate amount of bound beta catenin determined. […]
Background: An ELISA detects its analyte on a solid surface through an enzyme-linked reagent.

The target of the next assay is T5, TBL1 (Homo sapiens, UniProt O60907).
T5 construct: full length recombinant human TBL1 or full length recombinant human β-catenin; purchased ABNOVA
T5 sequence (O60907 1-577): T1 sequence (O60907 1-577)
Description: TBL1 inhibition (Table 5). Format: binding. On the procedure:
Briefly, for homologous competitive assay, a single concentration of 50 nM of biotinylated compound was added to the wells containing TBL1 recombinant protein, in the presence of various concentrations of unlinked compound (range of 0.1 nM to 10 μM) diluted in binding buffer. The sealed plate was incubated for 2 h at RT, and then processed as described above. For the heterologous competitive binding assay, 75 nM of β-catenin was used in place of the biotinylated compound, and the bounded protein was detected by anti-β-catenin antibody (Cell Signaling Tech) followed by secondary HRP-conjugated antibody.
To determine whether the ability of BC2059 to interfere with TBL1:β-catenin complex formation is due to direct interaction between TBL1 or β-catenin and the compound, we performed saturation binding assays in a in vitro system. High affinity binding Elisa 96 well plate (Maxisorp, Nunc) was coated with 100 ul to each well of full length recombinant human TBL1 or full length recombinant human β-catenin diluted to a final concentration of 1 ug/ml in carbonate/bicarbonate coating buffer, sealed to prevent evaporation, and incubated O/N at 4° C. After washing the plate 3 times with PBS 0.05% Tween-20, and blocking the plate with 200 μl of PBS 1% BSA each well for 1 h at RT, 100 μl of biotinylated compound was added to each well containing the recombinant proteins, at concentration in the range of 0.1 nM to 10 μM, diluted in binding buffer (50 mM TrisHCl pH 7.4, 10 mM MgCl2). The sealed plate was incubated for 2 h at RT, washed 3 times with PBS 0.05% Tween-20, and then the bounded compound was detected by streptavidin-HRP conjugated antibody (Cell Signaling Tech) diluted in blocking buffer. Elisa was developed by addition of ABTS HRP substrate (SIGMA), and the optical density (OD) for each well was read with a microplate reader set to 405 nm. To validate the saturation binding assay, homologous and heterologous competitive binding experiment were performed in an in vitro system. Briefly, for homologous competitive assay, a single concentration of 50 nM of biotinylated compound was added to the wells containing TBL1 recombinant protein, in the presence of various concentrations of unlinked compound (range of 0.1 nM to 10 uM) diluted in binding buffer. The sealed plate was incubated for 2 h at RT, and then processed as described above. For the heterologous competitive binding assay, 75 nM of β-catenin was used in place of the biotinylated compound, and the bounded protein was detected by anti-β-catenin antibody (Cell Signaling Tech) followed by secondary HRP-conjugated antibody.

A further assay has as its system HCT116 cells. Nature of the assay: Cell screening in HCT116 cells (Table 5). Conditions: Homo sapiens, HCT-116. Format: cell-based.

One may read the IC50 as the concentration that inhibits the measured activity by half. Consider `C[C@@H]1C[C@H](C)CN(S(=O)(=O)c2ccc3c(c2)C(=NO)c2cc(S(=O)(=O)N4C[C@H](C)C[C@H](C)C4)ccc2C3=NO)C1` [Compound 1], for which, in assay [1], the “disruption of the interaction of β-catenin with TBL1” value is listed as “able to disrupt the interaction of β-catenin with TBL1”. In addition, the IC50 is 20 nM in assay [2]; 10 to 20 nM on TBL1:β-catenin complex (HCT 15 cells, 20 mM LiCl, test agent 6 hours, read-out: IC50, interference with TBL1 and β-catenin interaction). Also, the “binding to β-catenin” value in assay [3] is on record as “not β-catenin”.

The EC50 is the concentration giving half of the maximal effect. Consider `CN(Cc1ccncc1)Cc1ccc(-c2nc(-c3cccnc3)cc(=O)[nH]2)cc1` [Compound 10, 2-(4-((methyl(pyridin-4-ylmethyl)amino)methyl)phenyl)-6-(pyridin-3-yl)pyrimidin-4(3H)-one], for which the EC50 at TBL1 was 0.28 µM.

In turn, `Cc1ccc(CN(C)Cc2ccc(-c3nc(-c4cccnc4)cc(=O)[nH]3)cc2)o1` [Compound 11] gave an EC50 on TBL1 of 0.29 µM.

As to `CC(C)N(C)Cc1ccc(-c2nc(-c3cccnc3)cc(=O)[nH]2)cc1` [Compound 12, 2-(4-((isopropyl(methyl)amino)methyl)phenyl)-6-(pyridin-3-yl)pyrimidin-4(3H)-one], the EC50 at TBL1 was found to be 102 µM.

For `CC(Nc1ncnc2[nH]cnc12)c1cnn(-c2ccccc2F)c1` (stereo not shown) [Compound 15, N-(1-(1-(2-fluorophenyl)-1H-pyrazol-4-yl)ethyl)-9H-purin-6-amine], the concentration for a half-maximal effect (EC50) was 0.054 µM at TBL1; 0.127 µM in the assay on HCT116 cells; 0.41 µM at TBL1:β-catenin complex (compound 0.3 nM to 3 μM for 6 h, cell lysates, read-out: EC50 μM TBL1: β-Catenine).
